Data reported in patent publication US20070249822A1, “Photolabile Coumarinylmethyl Esters of Cyclic Nucleotides, Methods for their Preparation and Their Use” (Forschungsverbund Berlin E.V., priority 2000, published 2007).
Blank lines part the entries; values can stand above or below the molecule they belong to.

What was measured:
[1] = cited from earlier work
[2] = test system: olfactory cGMP-dependent cation channel; assay: Activation of the olfactory cGMP-dependent cation channel upon photolysis of caged cGMP; type: cell-based; conditions: for activation of the olfactory cGMP-dependent cation channel upon photolysis: HEPES buffer
From the text: The new photolabile cGMP and cAMP esters can be used successfully in the investigation of cyclic nucleotide-controlled processes.

[3] = cited from earlier work; remark: listed apart in the source
[4] = test system: cyclic nucleotide-dependent ion channel CNCα3 (from olfactory cells); assay: Whole cell measurements on HEK293 cells: activation of CNCα3 by photolytic liberation of cAMP; type: cell-based; conditions: axial form, 500 μM intracellular solution, UV flashes 10 to 200 ms; versus 200 μM DMN-caged cGMP on CNCα2, equal exposures
From the text: Activation of Cyclic Nucleotide-Dependent Ion Channels by Photolytic Liberation of Cyclic Nucleotides from the Corresponding Caged Compounds
Using whole cell measurements on HEK293 cells, the activation of the cyclic nucleotide-dependent ion channel CNCα3 (from olfactory cells) by photolytic liberation of cAMP from the axial form of the compound of Example 1 ([…]) and of the cyclic nucleotide-dependent ion channel CNCα2 (from rod photoreceptors) by photolytic liberation of cGMP from the axial form of 4,5-dimethoxy-2-nitrobenzyl ester of cGMP [DMN-caged cGMP, produced according to J. M. Nerbonne, S. Richard, J. Nargeot, H. A. Lester, Nature 310, 74 (1984)] was investigated comparatively by electrophysiological means.

[5] = Solubility of coumarinylmethyl-caged cyclic nucleotides in acetonitrile/HEPES buffer (saturation concentration by HPLC); type: physicochemical; conditions: acetonitrile/HEPES buffer (5:95), pH 7.2, room temperature
Description: Comparison of the Solubilities of Miscellaneous coumarinyl-methyl-caged Cyclic Nucleotides in Acetonitrile/HEPES Buffer (5:95) at pH 7.2 and Room Temperature
A suspension of the compounds in the specified solvent was treated for 5 min in an ultrasonic bath, undissolved components were removed by centrifugation, and the concentration in the solution was determined using HPLC. The following saturation concentrations were determined: […]

Molecule: COc1ccc2c(COP3(=O)OCC4OC(n5cnc6c(N)ncnc65)C(O)C4O3)cc(=O)oc2c1 (single isomer, unassigned) [equatorial isomer of the (7-methoxycoumarin-4-yl)methyl ester of cAMP, (7-methoxycoumarin-4-yl)methyl ester of cAMP]
hydrolytic halflife ([1]; Ringer's solution): 60 h

Molecule: COc1ccc2c(COP3(=O)OCC4OC(n5cnc6c(=O)[nH]c(N)nc65)C(O)C4O3)cc(=O)oc2c1 (stereo not drawn) [7-methoxycoumarinylmethyl-caged cGMP]
activation of the olfactory cGMP-dependent cation channel upon photolysis [2]: not more than partially

Molecule: Nc1ncnc2c1ncn2C1OC2COP(=O)(OCc3ccc4c(c3)C(=O)c3ccccc3C4=O)OC2C1O (stereo not drawn) [(anthraquinon-2-yl)methyl ester of cAMP]
solubility in aqueous buffer solutions [3]: insufficient solubility

Molecule: Nc1ncnc2c1ncn2C1OC2COP(=O)(OCc3ccc4ccccc4c3)OC2C1O (stereo not drawn) [(naphth-2-yl)methyl ester of cAMP]
solubility in aqueous buffer solutions [3]: insufficient solubility

Molecule: Nc1nc2c(ncn2C2OC3COP(=O)(OCc4cc(=O)oc5cc(OCC(=O)O)c(OCC(=O)O)cc45)OC3C2O)c(=O)[nH]1 (stereo not drawn) [Compound 10, [6,7-bis(carboxymethoxy)coumarin-4-yl]methyl ester of cGMP]
amount of incident light for comparable activation of the channel ([2]; 333 nm, compared to the 4,5-dimethoxy-2-nitro-benzyl ester of cGMP): substantially smaller amounts of incident light

Molecule: Nc1ncnc2c1ncn2C1OC2COP(=O)(OCc3cc(=O)oc4cc(OCC(=O)O)c(OCC(=O)O)cc34)OC2C1O (stereo not drawn) [Example 1, [6,7-Bis(carboxymethoxy)coumarin-4-yl]methyl ester of cAMP]
concentration of liberated cyclic nucleotide [4]: substantially higher concentrations of liberated cyclic nucleotide

Molecule: Nc1nc2c(ncn2C2OC3COP(=O)(OCc4cc(=O)oc5cc(OCC(=O)O)ccc45)OC3C2O)c(=O)[nH]1 (stereo not drawn) [Example 3]
activation of the olfactory cGMP-dependent cation channel upon photolysis [2]: complete activation

saturation concentration [5]: > 100 µM
Molecule: Nc1nc2c(ncn2C2OC3COP(=O)(OCc4cc(=O)oc5cc(OCC(=O)O)c(OCC(=O)O)cc45)OC3C2O)c(=O)[nH]1 (stereo not drawn) [[6,7-Bis(carboxymethoxy)coumarin-4-yl]methyl-caged cGMP (equ]

saturation concentration [5]: 900 µM
Molecule: Nc1ncnc2c1ncn2C1OC2COP(=O)(OCc3cc(=O)oc4cc(OCC(=O)O)ccc34)OC2C1O (stereo not drawn) [[7-(Carboxymethoxy)coumarin-4-yl]methyl-caged cAMP (axial)]

Molecule: Nc1ncnc2c1ncn2C1OC2COP(=O)(OC(C(=O)c3ccccc3)c3ccccc3)OC2C1O (stereo not drawn) [desyl ester of cAMP]
sensitivity to solvolysis ([1]; aqueous buffer solutions): sensitive to solvolysis

saturation concentration [5]: 40 µM
Molecule: (7-Methoxycoumarin-4-yl)methyl-caged 8-Br-cGMP [(7-Methoxycoumarin-4-yl)methyl-caged 8-Br-cGMP (axial)]

saturation concentration [5]: 20 µM
Molecule: (7-Methoxycoumarin-4-yl)methyl-caged 8-Br-cGMP [(7-Methoxycoumarin-4-yl)methyl-caged 8-Br-cGMP (equatorial)]

saturation concentration [5]: 15 µM
Molecule: (7-Methoxycoumarin-4-yl)methyl-caged cAMP

saturation concentration [5]: 15 µM
Molecule: (7-Methoxycoumarin-4-yl)methyl-caged cGMP [(7-Methoxycoumarin-4-yl)methyl-caged cGMP (axial)]

saturation concentration [5]: 25 µM
Molecule: (7-Methoxycoumarin-4-yl)methyl-caged cGMP [(7-Methoxycoumarin-4-yl)methyl-caged cGMP (equatorial)]
